One test concerns the target cIAP1-BIR3 (Homo sapiens, UniProt Q13490). The test is described as follows: DELFIA displacement assay, cIAP1-BIR3. In kind it is binding.
The next test concerns the target cIAP2-BIR3 (Homo sapiens, UniProt Q13489). Kind of test: DELFIA displacement assay, cIAP2-BIR3. In kind it is binding.
Test [1] has as its target T1, BIR3 domain of XIAP (Homo sapiens, UniProt P98170). Kind of test: DELFIA displacement assay, XIAP-BIR3. In kind it is binding.
In test [2] the target is T1, BIR3 domain of XIAP. Kind of test: Kinetic analysis using the DELFIA assay. Format: binding.
Test [3] has as its target wt-BIR3 (Lys311) domain of XIAP (Homo sapiens, UniProt P98170). Kind of test: Denaturation thermal shift, wt BIR3 of XIAP. The note with it: for Thermal shift data ATm XIAP-BIR3: Table 2.
The target of test [4] is HA-BIR3 of XIAP-expressing HEK293T cells (Homo sapiens, UniProt P98170). The test is described as follows: Immunoblot of HA-BIR3 XIAP-expressing HEK293T cells. In kind it is cell-based. The following applies: 10 μM compound, 6 h, anti-HA antibody. A general note: Immunoblotting shows a protein as a band on a membrane.
Chain of HA-BIR3 of XIAP-expressing HEK293T cells (P98170 253-347 limits assumed): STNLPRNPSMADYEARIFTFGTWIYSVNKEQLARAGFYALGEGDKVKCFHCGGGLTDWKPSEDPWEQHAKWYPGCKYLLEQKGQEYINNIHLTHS

Entries after “also recorded” stand apart in the source; their conditions may differ. Bounds are passed on as bounds.

Data on two compounds can be found in paper PMC7722097 (ChemMedChem, 2020).

T1 sequence (P98170 253-347): as the sequence (P98170 253-347 limits assumed) above
Chain of wt-BIR3 (Lys311) domain of XIAP (P98170 253-347): as the sequence (P98170 253-347 limits assumed) above
Chain of cIAP1-BIR3 (Q13490 258-363): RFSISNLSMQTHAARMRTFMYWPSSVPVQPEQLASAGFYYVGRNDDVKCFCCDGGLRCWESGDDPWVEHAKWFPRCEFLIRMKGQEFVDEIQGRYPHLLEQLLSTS
Chain of cIAP2-BIR3 (Q13489 244-349): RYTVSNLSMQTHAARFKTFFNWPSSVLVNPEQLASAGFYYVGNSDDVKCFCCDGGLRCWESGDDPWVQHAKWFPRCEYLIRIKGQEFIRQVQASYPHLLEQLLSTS

`CN[C@@H](C)C(=O)N[C@@H](CNCc1ccc(S(=O)(=O)F)cc1)C(=O)N1CCC[C@H]1C(=O)N[C@@H]1CCc2c(F)cccc21` [compound 12, 4-((((S)-3-((S)-2-(((R)-4-fluoro-2,3-dihydro-1Hinden-1-yl)carbamoyl)pyrrolidin-1-yl)-2-((S)-2(methylamino)propanamido)-3oxopropyl)amino)methyl)benzene-1-sulfonyl fluoride]: the results for the IC50 at cIAP1-BIR3 and at cIAP2-BIR3 were 22 ± 4 nM and 58.5 ± 0.1 nM, respectively.

As to `CN[C@@H](C)C(=O)N[C@@H](CNC(=O)c1ccc(S(=O)(=O)F)c(OC)c1)C(=O)N1CCC[C@H]1C(=O)N[C@@H]1CCc2c(F)cccc21` [compound 13, 4-(((S)-3-((S)-2-(((R)-4-fluoro-2,3-dihydro-1Hinden-1-yl)carbamoyl)pyrrolidin-1-yl)-2-((S)-2(methylamino)propanamido)-3-oxopropyl)carbamoyl)-2methoxybenzene-1-sulfonyl fluoride], the results for the IC50 at BIR3 domain of XIAP [1], on cIAP1-BIR3 and at cIAP2-BIR3 were 15.6 ± 0.8 nM, 141 ± 15 nM and 492 ± 26 nM, respectively. Further, the “Selectivity XIAP vs cIAP1/2, in words” value on BIR3 domain of XIAP [1] (from DELFIA IC50 values of Table 2) is given as “more potent towards XIAP; also recorded: significantly more selective for XIAP compared to cIAP1/2”. Moreover, the affinity on BIR3 domain of XIAP [2], expressed as Ki, was 85 ± 3 nM. The results for the “Thermal shift data ATm XIAP-BIR3” value in test [3] (pre-incubation 30min (top value) at room temperature) and in test [3] (pre-incubation 2h (bottom value) at room temperature) were 27.0 ± 0.2 °C and 27.2 ± 0.1 °C, respectively. Moreover, the “ΔTm, BIR3 domain of XIAP, as stated in text or legend” value in test [3] (approximate values or bounds in running text, incubation 30 min or 2 h) was more than 20 °C. Also, in test [4], the “Covalent adduct formation in cell (band shift)” value was “band shift”. Also, the “Stabilization of HA-BIR3 in cell (western blot band intensity)” value in test [4] is given as “stabilized HA-BIR3; also recorded: most intense band”.

As a reminder, the IC50 is the concentration that gives 50% inhibition. A low value points to greater potency in that assay. A word on the Ki: it is a dissociation constant, usually derived from enzyme kinetics or from competition with a known ligand. A high value points to lower affinity.
